In one data set the test system is CoV229E. In words: Anti-Coronavirus 229E cytoprotection assay, MRC-5. To be noted: Human coronavirus 229E, MRC5, 6 days, XTT. The class given is cell-based. For orientation: Formazan colour is commonly taken as a measure of viable cells.
The nature of data set [1]: Toxicity XTT in MRC-5 (229E cytoprotection assay). To be noted: human.
A further data set deals with HCV 1b. The data set can be described thus: microbe, parasite or virus in culture. The class given is cell-based. To be noted: for HCV 1b - percent effect: @ 10 μM.
Data set [2] has as its system MCF7 wild-type cell lines. In words: MCF7 growth inhibition assay (Cell Titre Glo 2.0). It counts as cell-based. To be noted: Homo sapiens, 120 hours, read-out: MCF-7 IC50. On the procedure: The growth inhibition properties of inhibitors on MCF7 wild-type cell lines were evaluated using the Cell Titre Glo 2.0 cell viability reagent. The assay utilized 384-well black clear bottom plates with 20 μl of MCF7 wild-type cell suspension mixed with reference/test compounds and 20 μl of Cell Titre Glo 2.0 reagent. Cells were seeded at a density of 1000 cells/well in DMEM High Glucose culture media+10% Fetal Bovine Serum (FBS). Staurosporine and Camptothecin served as positive controls for confirming cytotoxicity at a concentration of 30 μM, and vehicle control of 1% DMSO was used to standardize conditions across all test points. The assay and culture media both contained 1% DMSO. […] The incubation period for the assay was set at 120 hours, after which growth inhibition was assessed. Using a multi-mode reader, the assay readout was based on luminescence measured in Relative Light Units (RLUs). The viability luminescence signal was monitored continually from the same wells over an extended period, allowing for detailed analysis of cell viability. […]
Cells were maintained and seeded in 384 […] plates, maintaining 1000 cells/well. […] This was followed by the addition of CTG reagent as per the kit's instruction protocol for 30 minutes and RLU data to be recorded. Post plate read data to be analyzed using GraphPad Prism for software IC50 value generation. […]

Data set [3] in a line: XTT cell viability assay, Huh-luc/neo-ET. The class given is cell-based. To be noted: human, Huh-luc/neo-ET cells, read-out: HCV 1b - TC50. On the procedure: (§1) Twenty-four hours after seeding the cells, the cell culture supernatant was removed from each well and replaced with 175 μL fresh complete medium minus G418. Test compounds were evaluated at a high-test concentration of 10 μM and five serial half-logarithmic dilutions in three biological replicates. In three biological replicates, Sofosbuvir was evaluated in parallel at a high-test concentration of 1 μM and five serial half-logarithmic dilutions. Compounds were first serially diluted in DMSO to 400× of each final in-well concentration. An intermediate 8× solution was prepared in a complete medium and then added to the cells in a volume of 25 μL per well. A complete medium containing an equal percentage of DMSO (v/v) was added to vehicle-treated control cells. The final DMSO concentration was 0.25% (v/v) for all samples. The cells were incubated for an additional 72 hours at 37° C./5% CO2, then HCV replication was measured by luciferase activity and cell viability was assessed in parallel using an XTT colorimetric assay.
(§2) Huh-luc/neo-ET cell viability was measured at 72 hours after treatment using the tetrazolium dye XTT (2,3-bis(2-methoxy-4-nitro-5-sulfophenyl)-5[(phenylamino)carbonyl]-2H-tetrazolium hydroxide). Mitochondrial enzymes of metabolically active cells metabolize XTT-tetrazolium to a soluble formazan product. XTT solution was prepared fresh at 1 mg/mL in DMEM. Phenazine methosulfate (PMS) solution was prepared at 0.15 mg/mL in PBS and stored in the dark at −20° C. An XTT/PMS stock was prepared immediately before use by adding 40 μL of PMS per ml of XTT solution. Fifty microliters (50 μL) XTT/PMS were added per well, and the cells were incubated for 4 hours at 37° C. The cell culture plates were then sealed with adhesive plate sealers and shaken gently or inverted several times to mix the soluble formazan product. The formazan product was measured spectrophotometrically by absorbance at 450/650 nm on a Vmax plate reader (Molecular Devices). The raw data in Softmax Pro 5.4.2 software was imported into Microsoft Excel for further analysis. Data are presented as absorbance values (450/650 nm) or the percentage of viable cells relative to vehicle-treated control (mean+1−standard deviation, n=3 biological replicates from one independent experiment).

Another data set relates to MRC-5 cells. In words: Toxicity XTT in MRC-5 (229E cytoprotection assay). To be noted: read-out: CoV229E - TC50; MRC-5; XTT; 6 days.
The next data set relates to Huh-luc/neo-ET cells. In words: XTT cell viability assay, Huh-luc/neo-ET. It counts as cell-based. To be noted: 72 hours, read-out: HCV 1b - TC50. On the procedure: as §1, §2
The subject of the next data set is Norovirus Norwalk Virus. In words: Norwalk virus CPE assay, HG23 (Method 6). The class given is cell-based. An excerpt: The antiviral assays were cell line based and consisted in transfecting each of the viruses tested in a compatible cell line. Upon infection and after drug treatment, viral survival and cell toxicity were reported from the readout of three different assays: cytopathic effect (CPE), viral yield reduction (VYR), or immunofluorescence (IF). A breakdown of the results obtained can be found in Table 3 in which EC50 values have been converted to account for variations in FBS concentrations across assays.
Compounds were tested in an assay medium containing 2% fetal bovine serum (FBS). Test compounds were added to cells prior to infection with virus at a multiplicity of infection (MOI) sufficient to induce visible cytopathic effect (CPE). […] Additionally, the EC90 was defined as the concentration required to achieve a 1 log10 reduction in viral titer. Dose-response curves depicting viral CPE (red line) and compound cytotoxicity (purple line) were generated to support these analyses.

The nature of data set [4]: Protein binding in FBS, rapid equilibrium dialysis (RED). To be noted: 10% FBS (text/footnote). On the technique in general: In equilibrium dialysis free small molecules cross a membrane that holds back macromolecules.

pEC50, pIC50: −log10 of the molar value.

By pEC50 is commonly meant the negative decadic logarithm of the EC50, by convention in mol/L. The term pIC50 denotes −log10 of the IC50, conventionally taken in molar units.

With `COc1ccc(-c2c(Cc3ccc(OCCN4CCCCC4)cc3)c3ccc(OC)cc3n2C)cc1` [MCAA-01], the pEC50 in the data set on CoV229E was 5.73; in the data set with HCV 1b (Hepatitis C virus, Huh-luc/neo-ET replicon, 72 hours, luciferase), 5.44. Further, the CC50 at 6 days in data set [1] was greater than 5 µM. Further, the negative logarithm of the IC50 (pIC50) in data set [2] was less than 5.00. The CC50 at 72 h in [3] was greater than 10 µM.
For the compound `O=C(O)c1ccc(-c2c(CC3CCCC3)c3ccc(F)cc3n2Cc2ccc(OCCN3CCCCC3)cc2)cc1` [MCAA-02], the CC50 in the data set on MRC-5 cells was greater than 5 µM; in the data set on Huh-luc/neo-ET cells it was greater than 10 µM.
In the case of `O=C(O)c1ccc(-c2c(CC3CCCC3)c3ccc(F)cc3n2Cc2ccc(OCCC3CCCCC3)cc2)cc1` [MCAA-03], the CC50 in the data set with MRC-5 cells was 2.47 µM; with Huh-luc/neo-ET cells it was greater than 10 µM.
As for `Cc1c(-c2ccc(O)cc2)n(Cc2ccc(OCCC3CCCCC3)cc2)c2ccc(O)cc12` [MCAA-04], the CC50 with MRC-5 cells is 2.7 µM; in the data set with Huh-luc/neo-ET cells it was greater than 10 µM.
On the same counts, the results for `COc1ccc(-c2c(Cc3ccc(OCCC4CCCCC4)cc3)c3ccc(OC)cc3n2C)cc1` [MCAA-05] are greater than 5 µM and greater than 10 µM.
On the same counts, the results for `Fc1ccc(-c2cc3sccc3n2Cc2ccc(OCCN3CCCCC3)cc2)cc1` [MCAA-06] are 1.53 µM and greater than 10 µM.
Regarding `Fc1ccc(-c2cc3sccc3n2Cc2ccc(OCCC3CCCCC3)cc2)cc1` [MCAA-07], the CC50 was greater than 5 µM in the data set on MRC-5 cells and greater than 10 µM in the data set with Huh-luc/neo-ET cells. For the same compound, the “HCV 1b - percent effect” value in the data set on HCV 1b is listed as 30% @ 10 μM.
Take `Nc1cccc2nc(-c3ccc(F)cc3)n(Cc3ccc(OCCN4CCCCC4)cc3)c12` [MCAA-08]: the CC50 with MRC-5 cells was greater than 5 µM; with Huh-luc/neo-ET cells, greater than 10 µM.
The like results for `Nc1cccc2nc(-c3ccc(F)cc3)n(Cc3ccc(OCCC4CCCCC4)cc3)c12` [MCAA-09] were, in that order, greater than 5 µM and greater than 10 µM.
On the same counts, the results for `Nc1cccc2c1nc(-c1ccc(F)cc1)n2Cc1ccc(OCCN2CCCCC2)cc1` [MCAA-10] are greater than 5 µM and greater than 10 µM.
The like results for `Nc1cccc2c1nc(-c1ccc(F)cc1)n2Cc1ccc(OCCC2CCCCC2)cc1` [MCAA-11] were, in that order, greater than 5 µM and 5.82 µM.
As to `O=[N+]([O-])c1cccc2nc(-c3ccc(F)cc3)n(Cc3ccc(OCCN4CCCCC4)cc3)c12` [MCAA-12], the CC50 is greater than 5 µM in the data set on MRC-5 cells and greater than 10 µM in the data set with Huh-luc/neo-ET cells.
`O=[N+]([O-])c1cccc2c1nc(-c1ccc(F)cc1)n2Cc1ccc(OCCN2CCCCC2)cc1` [MCAA-13]: the CC50 with MRC-5 cells is greater than 5 µM; in the data set on Huh-luc/neo-ET cells it was greater than 10 µM.
Consider `O=[N+]([O-])c1cccc2nc(-c3ccc(F)cc3)n(Cc3ccc(OCCC4CCCCC4)cc3)c12` [MCAA-14], for which the figures for the CC50 with MRC-5 cells and in the data set with Huh-luc/neo-ET cells were greater than 5 µM and greater than 10 µM, respectively. For the same compound, the “HCV 1b - percent effect” value in the data set with HCV 1b was 34% @ 10 μM.
Consider `O=[N+]([O-])c1cccc2c1nc(-c1ccc(F)cc1)n2Cc1ccc(OCCC2CCCCC2)cc1` [MCAA-15], for which the CC50 in the data set with MRC-5 cells was greater than 5 µM; in the data set on Huh-luc/neo-ET cells it was greater than 10 µM. In addition, the “HCV 1b - percent effect” value with HCV 1b is listed as 38% @ 10 μM.
In the case of `Cc1c(-c2ccc(O)cc2)n(Cc2ccc(OCCN3CCCCC3)cc2)c2ccc(O)cc12` [Pipendoxifene], in the data set on Norovirus Norwalk Virus (2% FBS, @ 5 μM), the “percent effect printed in EC50 column” value was determined as 31% @. Also, the “percent effect printed in Corrected EC50 column” value in the data set on Norovirus Norwalk Virus (@ 1.25 μM (concentration corrected for 2% FBS)) was 31% @ 1.25. Moreover, the CC50 with MRC-5 cells is greater than 1 µM. In addition, the unbound fraction in [4] was found to be 5%.
For the compound `CCC(CC)COC(=O)[C@H](C)N[P@](=O)(OC[C@H]1O[C@@](C#N)(c2ccc3c(N)ncnn23)[C@H](O)[C@@H]1O)Oc1ccccc1` [Remdesivir, reference compound], the CC50 in the data set with MRC-5 cells is greater than 1 µM.
Regarding `CC(C)OC(=O)[C@H](C)N[P@](=O)(OC[C@H]1O[C@@H](n2ccc(=O)[nH]c2=O)[C@](C)(F)[C@@H]1O)Oc1ccccc1` [Sofosbuvir, reference compound], in the data set with Huh-luc/neo-ET cells, the CC50 was greater than 1 µM.

The values above are taken from US20260174744A1, “COMPOUNDS, COMPOSITIONS, AND METHODS OF TREATING RNA VIRAL INFECTIONS” (priority 2024, published 2026).
